Assay results reported in PubChem BioAssay (NCI).
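Step 1: Grow cells in 96-well plates. Step 2: Expose to compound for 48 hours at 5 concentrations. Step 3: Interpolate endpoints linearly; if unreached, use highest concentration. TGI marks complete inhibition of growth.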

Tests used:
Assay in all cases: growth of human tumour cells (NCI), 48 h
COLO 205 colon = tested on: COLO 205 colon
U251 CNS = tested on: U251 CNS
SR leukemia = tested on: SR leukemia
NCI-H226 lung = tested on: NCI-H226 lung
T-47D breast = tested on: T-47D breast
KM12 colon = tested on: KM12 colon
DU-145 prostate = tested on: DU-145 prostate
IGROV1 ovarian = tested on: IGROV1 ovarian
OVCAR-4 ovarian = tested on: OVCAR-4 ovarian
TK-10 renal = tested on: TK-10 renal
SK-OV-3 ovarian = tested on: SK-OV-3 ovarian

| SMILES | TGI (COLO 205 colon) | TGI (U251 CNS) | TGI (SR leukemia) | TGI (NCI-H226 lung) | TGI (T-47D breast) | TGI (KM12 colon) | TGI (DU-145 prostate) | TGI (IGROV1 ovarian) | TGI (OVCAR-4 ovarian) | TGI (TK-10 renal) | TGI (SK-OV-3 ovarian) |
| --- | --- | --- | --- | --- | --- | --- | --- | --- | --- | --- | --- |
| Nc1nc(Cl)c(N)c(NCC2(CO)CC(CCCc3ccccc3)C2)n1 (stereo not drawn) | 45.6 µM | > 100 µM | > 100 µM | > 63.7 µM | > 100 µM | > 100 µM | > 100 µM | > 73.9 µM | > 100 µM | > 100 µM | > 100 µM |
| CC(C)[C@@H]1ON1C(C)c1ccccc1 (stereo partly drawn) | > 100 µM | > 100 µM | > 100 µM | > 100 µM | > 100 µM | > 100 µM | > 100 µM | > 100 µM | > 100 µM | > 100 µM | > 100 µM |
| OC(c1ccc(-c2ccccc2)cc1)C(F)(F)c1nc2ccccc2o1 (stereo not drawn) | > 100 µM | > 100 µM | > 100 µM | > 100 µM | > 100 µM | > 100 µM | > 82.7 µM | > 100 µM | 50.4 µM | > 100 µM | > 100 µM |
| CCNC1=C(NC(=O)CC)C(=O)c2ccccc2C1=O | > 100 µM | > 100 µM | > 100 µM | > 100 µM | > 100 µM | > 100 µM | > 100 µM | > 100 µM | > 100 µM | > 100 µM | > 100 µM |
| CCOC(=O)CSc1nnc(C(Sc2nc(-c3ccccc3)c(-c3ccccc3)[nH]2)C(C)C)n1-c1ccccc1 (stereo not drawn) | 28.6 µM | > 10 µM | > 89.6 µM | 26 µM | > 100 µM | > 31.6 µM | > 100 µM | > 10 µM | 28.5 µM | > 31.6 µM | > 10 µM |
| CC1=NN(C(=O)CSc2nc3ccc(I)cc3c(=O)n2Cc2ccccc2)C(=O)C1 | 92.5 µM | 67.4 µM | 74 µM | > 100 µM | 60.3 µM | > 100 µM | > 100 µM | 65.4 µM | 87.8 µM | > 100 µM | 77 µM |
| O=C1NC(=S)N(c2ccccc2)C1=O | > 100 µM | > 100 µM | > 100 µM | > 100 µM | > 100 µM | > 100 µM | > 100 µM | > 100 µM | > 100 µM | > 100 µM | > 100 µM |
| CCN(CC)CCNCc1cc(Cl)cc2c1OCOC2 | > 10 µM | > 10 µM | > 10 µM | > 10 µM | > 10 µM | > 10 µM | > 10 µM | > 10 µM | > 10 µM | > 10 µM | > 10 µM |
| Nc1ccc(CCN2CCN(CCCc3ccccc3)CC2)cc1 | > 100 µM | > 100 µM | > 100 µM | > 100 µM | 95.8 µM | > 100 µM | > 100 µM | > 100 µM | > 100 µM | > 100 µM | > 100 µM |
| COC(=O)C1=C(OC(=O)c2ccccc2)C(C(=O)OC)[C@]2(O)[C@@H](C(=O)OC)[C@H]1C[C@@H](c1ccccc1)[C@@H]2C(=O)OC (stereo partly drawn) | 21.8 µM | 20.8 µM | 31.3 µM | 19.2 µM | 33.8 µM | > 100 µM | 30.3 µM | 21.1 µM | > 100 µM | 69.9 µM | 48.3 µM |
| O=C(/C=C/c1csc(-c2ccccc2)n1)NCc1ccc(C(=O)NCc2ccccc2)cc1 | > 100 µM | > 100 µM | > 100 µM | > 100 µM | > 100 µM | > 100 µM | > 100 µM | > 100 µM | > 100 µM | 85.8 µM | > 100 µM |
| COc1ccc(CSc2ccccc2Cn2cccc2)cc1OC | > 100 µM | > 100 µM | > 100 µM | > 100 µM | > 100 µM | > 100 µM | > 100 µM | > 100 µM | > 100 µM | > 100 µM | > 100 µM |
| CC[C@@H](/C=C\CCC(=O)C[C@H](O)CCC=C(C)C)O[Si](C(C)C)(C(C)C)C(C)C | > 100 µM | > 100 µM | > 100 µM | > 100 µM | > 100 µM | > 100 µM | > 100 µM | > 100 µM | > 100 µM | > 100 µM | > 100 µM |
